Test results published in patent US6953786B2, “Compositions comprising plant-derived polyphenolic compounds and inhibitors of reactive oxygen species and methods of using thereof” (The Regents of the University of California, priority 2002, dated 2005).

Assays:
cytochrome c [1] = assay: Mitochondrial cytochrome c release (Western blot); type: cell-based, rat; conditions: BSp73AS, 6 hours, 100 μM
Method: In order to determine the effects polyphenolic compounds have on mitochondrial cytochrome c release and apoptosis, the following assay was conducted. BSp73AS cells were cultured for 6 hours and Mia PACA-2 cells were cultured in the absence of serum or growth factors for 24 hours in the absence or presence of 100 μM of each rutin, trans-resveratrol, genistein, or quercetin. Cells were washed twice with ice-cold PBS, pH 7.2 and resuspended in extraction buffer, about 500 μl, comprising 20 mM HEPES-KOH (pH 7.0), 10 mM KCl, 1 mM […], 2 mM MgCl2, 1 mM EDTA, 1 mM DTT, 250 mM sucrose, 1 mM PMSF and protease inhibitors cocktail as provided above. The lysate was incubated for 30 minutes on ice and then homogenized using a glass dounce (80 strokes). Nuclei were removed by centrifugation at 1,000 g for 10 minutes at 4° C. Supernatant was additionally centrifuged for 1 hour at 100,000 g and the resulting supernatant (cytosolic fraction) and pellet (mitochondrial fraction) were collected separately, subjected to SDS-PAGE, and Western blotting using an antibody against cytochrome c. The experiment was repeated twice with similar results.

cytochrome c [2] = assay: Mitochondrial cytochrome c release (Western blot); type: cell-based, human; conditions: Mia PACA-2, 24 hours, 100 μM, no serum
Method: In order to determine the effects polyphenolic compounds have on mitochondrial cytochrome c release and apoptosis, the following assay was conducted. BSp73AS cells were cultured for 6 hours and Mia PACA-2 cells were cultured in the absence of serum or growth factors for 24 hours in the absence or presence of 100 μM of each rutin, trans-resveratrol, genistein, or quercetin. Cells were washed twice with ice-cold PBS, pH 7.2 and resuspended in extraction buffer, about 500 μl, comprising 20 mM HEPES-KOH (pH 7.0), 10 mM KCl, 1 mM NaEGTA, 2 mM MgCl2, 1 mM EDTA, 1 mM DTT, 250 mM sucrose, 1 mM PMSF and protease inhibitors cocktail as provided above. The lysate was incubated for 30 minutes on ice and then homogenized using a glass dounce (80 strokes). Nuclei were removed by centrifugation at 1,000 g for 10 minutes at 4° C. Supernatant was additionally centrifuged for 1 hour at 100,000 g and the resulting supernatant (cytosolic fraction) and pellet (mitochondrial fraction) were collected separately, subjected to SDS-PAGE, and Western blotting using an antibody against cytochrome c. The experiment was repeated twice with similar results.
In order to determine the role of the cancer cell's PTP in the effects of the polyphenolic compounds on mitochondrial function, caspase-3 activation and apoptosis, we performed the following experiments. Mia PACA-2 cells were cultured in the absence of serum or growth factors for 24 hours in the presence or absence of quercetin (100 μM), trans-resveratrol (100 μM), Z-VAD FMK (50 μM), cyclosporin A (5 μM) and/or aristolochic acid (50 μM). Cells were collected, washed with ice-cold PBS and resuspended in lysis buffer comprising 0.5% Nonidet P-40 or manufactured by the name IGEPAL CA-630, 0.5 mM EDTA, 150 mM NaCl and 50 mM Tris at pH 7.5. Cell lysates were placed for 30 minutes on a rotator at 4° C. and then centrifuged for 15 minutes at 15,000 g. Cytosolic protein extracts (supernatants) were collected, protein concentrations were determined and the extracts were aliquoted and stored at −80° C. Cytosolic extracts were subjected to SDS-PAGE and Western blot was performed with an antibody against cytochrome c. Blots were then stripped and re-probed with an antibody against tubulin to confirm equal protein loading. The experiment was repeated twice with similar results.
In order to determine the effect of a combination of trans-resveratrol and quercetin on cytochrome c release and caspase-3 activity, the following was conducted. Mia PACA-2 cells were cultured in the absence of serum or growth factors for 24 hours in the presence or absence of trans-resveratrol (25 μM), quercetin (25 μM), or the combination of trans-resveratrol (25 μM) and quercetin (25 μM). Cytosolic extracts were prepared and subject to SDS-PAGE followed by protein transfer. Immunoblot was performed with an antibody against tubulin to confirm equal protein loading.

NF-κB = NF-κB DNA binding activity (EMSA / gel shift); type: cell-based, human; conditions: for NF-κB activation (DNA binding): Mia PACA-2, 24 hours, no serum, polyphenols 100 μM, MG-132 20 μM; for NF-κB activation caused by serum: Mia PACA-2, 72 hours, with serum, DPI 15 μM, trans-resveratrol 100 μM, genistein 100 μM, LY294002 50 μM
Method: In order to determine the role of activated NF-κB in the regulation of apoptosis caused by the polyphenolic compound, the following assay was conducted. BSp73AS cells were cultured for 6 hours and Mia PACA-2 cells were cultured in the absence of serum or growth factors for 24 hours in the absence (controls) or presence of rutin, quercetin, trans-resveratrol, or genistein, each at 100 μM and 20 μM proteosome inhibitor MG-132. Nuclear proteins were isolated and analyzed for NF-κB DNA binding activity with electrophoretic mobility shift assay (EMSA).
Specifically, aliquots of nuclear extracts with equal amount of protein, about 2 to about 10 μg, were mixed in 20 μl reactions with a buffer comprising 10 mM HEPES (pH 7.6), 50 mM KCl, 0.1 mM EDTA, 1 mM DTT, 10% (vol/vol) glycerol and 3 μg poly[d (I-C)]. After aliquots were equilibrated on ice for 5 minutes, binding reactions were stared by addition of 20-60,000 counts/min (20 fM) of ^32P-labeled DNA probes and allowed to proceed for 25-30 minutes at room temperature or up to 1 hour on ice. The oligonucleotide probe
containing the κB binding motif (underlined) was annealed to the complementary oligonucleotide with a 5′-G overhang and end-labeled using Klenow DNA polymerase I. The samples were electrophoresed at room temperature in 0.5×TBE buffer (1×TBE 89 mM Tris base, 89 mM boric acid and 2 mM EDTA) on nondenaturing 4.5% polyacrylamide gel at 200 V. Gels were dried and directly analyzed in the PhosphorImager (Molecular Dynamics, Sunnyvale, Calif.). The experiment was repeated twice.
To study the effects of combinations of DPI and polyphenolic compounds on serum-induced activation of NF-κB and protection from apoptosis, the following assay was conducted. Mia PACA-2 cells were cultured for 72 hours in the presence of serum with or without 100 μM trans-resveratrol, 15 μM DPI, a combination of trans-resveratrol, 100 μM genistein, or a combination of genistein and DPI. NF-κB binding activity was measured in nuclear extracts by gel shift assay as described above.
To determine the effects of LY29400 and DPI on NF-κB activation, Mia PACA-2 cells were cultured for 72 hours in the presence of serum and 15 μM DPI with or without 50 μM LY294002. NF-κB DNA binding activity was measured in nuclear extracts by gel shift assay as described above.

Row | SMILES | cytosolic and mitochondrial cytochrome c (cytochrome c [1]) | cytosolic and mitochondrial cytochrome c (cytochrome c [2]) | NF-κB activation (DNA binding) (NF-κB) | NF-κB activation caused by serum (NF-κB)
1 | O=c1c(-c2ccc(O)cc2)coc2cc(O)cc(O)c12 [genistein] | caused increases in cytosolic cytochrome c and decreases in mitochondrial cytochrome c | caused increases in cytosolic cytochrome c and decreases in mitochondrial cytochrome c | has no effect on NF-κB | not inhibited
2 | O=c1c(O)c(-c2ccc(O)c(O)c2)oc2cc(O)cc(O)c12 [quercetin] | caused increases in cytosolic cytochrome c and decreases in mitochondrial cytochrome c | caused increases in cytosolic cytochrome c and decreases in mitochondrial cytochrome c | inhibit NF-κB activation | –
3 | Oc1ccc(/C=C/c2cc(O)cc(O)c2)cc1 [trans-resveratrol] | caused increases in cytosolic cytochrome c and decreases in mitochondrial cytochrome c | caused increases in cytosolic cytochrome c and decreases in mitochondrial cytochrome c | inhibit NF-κB activation | not inhibited
